Test results from ChEMBL document CHEMBL5665440, “ASAP - In vitro liver microsomal stability” (2024).

Key:
[1] = (§1) Human liver microsomal stability of compound in microsomal protein, PBS buffer pH 7.4, NADPH, glucose-6-phosphate and glucose-6-phosphate dehydrogenase media. Aliquotes were taken at 5 time points and after stopping the reaction, supernatants were analyzed using HPLC coupled with a tandem mass spectrometer. The elimination constant, half-life, and intrinsic clearance are determined as results using linear regression analysis.; assay type: ADME, microsomes, Microsome; details: for half-life / microsomal CLint: liver microsomes; for Remaining / Remaining (without cofactor): microsomes
[2] = as §1, with “Mouse” for “Human”; assay type: ADME, microsomes, Microsome; details: for half-life / microsomal CLint: liver microsomes; for Remaining / Remaining (without cofactor): microsomes
Throughout, for Remaining (without cofactor): time not given here.
Throughout, for Remaining: time not given here.

Row | SMILES | half-life [1] [min] | microsomal CLint [1] [µL/min/mg] | Remaining [1] [%] | Remaining (without cofactor) [1] [%] | half-life [2] [min] | microsomal CLint [2] [µL/min/mg] | Remaining [2] [%] | Remaining (without cofactor) [2] [%]
1 | O=C(NCC(F)F)[C@H](Nc1ccc2c(c1)CNC2)c1cc(Br)cc2nc[nH]c12 | > 173 | < 10 | 100.118 | 106.151 | > 173 | < 10 | 93.302 | 93.905
2 | Cc1cc([C@H](Nc2ccc3c(c2)CNC3)C(=O)NCC(F)F)cc(C(F)(F)F)c1 | > 173 | < 10 | 89.032 | 105.687 | 149 | 11.2 | 85.983 | 88.687
3 | Nc1ccncc1-c1cc(F)cc(C(=O)Nc2ccc3c(c2)CNC3)c1 | > 173 | < 10 | 84.663 | 102.026 | > 173 | < 10 | 87.356 | 106.991
4 | CO[C@H]1C[C@H](n2ncc3c(C(=O)Nc4ccc5c(c4)CNC5)cc(Cl)cc32)C1 | > 173 | < 10 | 104.617 | 107.995 | > 173 | < 10 | 91.321 | 100.159
5 | NCc1cccc(NC(=O)[C@@H](NC(=O)OCc2ccccc2)c2ccc(OCc3ccccc3)cc2)c1 | 149 | 11 | 87 | 100 | 1800 | 1 | 103 | 106
6 | CNC(=O)c1cc(Br)cc([C@H](Nc2ccc3c(c2)CNC3)C(=O)NCC(F)F)c1 | > 173 | < 10 | 96.629 | 106.229 | > 173 | < 10 | 92.112 | 95.032

More lines, now with the values ahead:

Row | half-life [1] [min] | microsomal CLint [1] [µL/min/mg] | Remaining [1] [%] | Remaining (without cofactor) [1] [%] | half-life [2] [min] | microsomal CLint [2] [µL/min/mg] | Remaining [2] [%] | Remaining (without cofactor) [2] [%] | SMILES
7 | 10.8 | 155 | 8.181 | 110.535 | 109 | 13 | 79.49 | 100.358 | O=C(O)c1cc(Cl)ccc1NS(=O)(=O)c1ccc(Oc2ccccc2Cl)cc1
8 | > 173 | < 10 | 90 | 94.287 | 45.4 | 36.8 | 54.776 | 103.385 | O=C(Nc1ccc2c(c1)CNC2)c1cc(F)cc2[nH]c(-c3ccc(F)cc3)nc12
9 | > 173 | < 10 | 104.365 | 104.155 | 19.2 | 86.8 | 23.262 | 95.024 | O=C(Nc1cc2c(cc1C1CC1)CNC2)c1cc(F)cc2[nH]ncc12
10 | 135 | 12.4 | 79.862 | 98.099 | > 173 | < 10 | 98.216 | 98.077 | NCc1cccc(NC(=O)C[C@H](NC(=O)OCc2ccccc2)c2ccc(OCc3ccccc3)c(Br)c2)c1
11 | 10 | 167 | 6 | 98 | 9.2 | 181 | 5 | 96 | O=C(/C=C/c1ccccc1)C(=O)N1CCN(CCc2ccccc2)CC1
12 | > 173 | < 10 | 100.816 | 103.719 | > 173 | < 10 | 93.727 | 105.352 | O=C(NCC(F)F)[C@H](Nc1ccc2c(c1)CNC2)c1cc(Cl)cc2ccoc12
